Where two headings read alike, the source gives them in different places. No end group written: not given here.
Key:
[1] = system: healthy volunteers; assay: Allergic skin test (intradermal injection, flare size) in healthy volunteers; assay type: in vivo, human; details: for positive skin reaction, number of cases: among 41 or 42 cases of healthy volunteers
Description: Therefore, it was investigated whether an allergic reaction to a peptide derived from the above self-antigen would also be observed in healthy volunteers. Skin tests were carried out with respect to self-derived tumor rejection antigen peptides capable of inducing cytotoxic T cells for 42 cases of healthy volunteers whose age ranges from 19 years old to 54 years old (mean age 29.2 years). For testing an allergic skin reaction, 10 μg of each peptide (50 μl volume) was intradermally injected, and evaluation was carried out 15 minutes after the injection. The results are summarized in Tables 1 to 4, wherein ‘NT’ and ‘S. T’ mean ‘not tested’ and ‘skin test’, respectively. −: longest diameter (D) of flare […] +: 10 mm≦D<30 mm ++: 30 mm≦D<50 mm +++: 50 mm≦D

[2] = system: cancer patients; assay: Skin test by pre-vaccination before phase I clinical trial in cancer patients
[3] = system: skin reaction and serum IgE level against SART3315; details: human, in vivo
Description: The phase I clinical test using SART3109 was carried out on a colon cancer patient whose skin reaction against SART3315 was positive. With respect to the patient, a skin reaction against SART3109 was negative, and a specific IgE level in serum against SART3315 and SART3109 was low. […] Although a SART3109-specific IgE level in serum was increased by administration of SART3109, skin reactions before and after administration of the same were negative (FIG. 1F). Namely, an allergic reaction and the specific IgE level in serum against SART3315 were reduced by administration of SART3109.

[4] = system: skin reaction and serum IgE level against CypB84; assay: Phase I clinical trial of peptide vaccine using CypB91 in lung cancer patient; assay type: in vivo, human
Description: The phase I clinical trial of a peptide vaccine using CypB91 was carried out on a lung cancer patient whose skin reaction and serum IgE level against CypB84 were positive in the above allergic skin test. The skin reaction and serum IgE level against CypB91 of the patient were negative. […] A skin reaction and a serum […] level against CypB91 even after 3 times administration of CypB91 were substantially the same as those before administration, i.e., negative (FIG. 1B).

[5] = system: skin reaction and serum IgE level against ART413; details: human, in vivo
Description: The phase I clinical trial with ART475 was carried out on an ovarian cancer patient whose skin reaction against ART413 was positive. With respect to the patient, a skin reaction against ART475 was negative, and a specific IgE level in serum against ART413 and ART475 was low. […] Namely, an allergic reaction and a specific IgE level in serum against ART413 were reduced by administration of ART475.

[6] = system: cancer patients; details: human, in vivo
[7] = positive donors / donors tested, healthy volunteers

Row | Substance | positive skin reaction, number of cases [1] [cases] | positive skin reaction, percent of healthy volunteers ([1]; healthy volunteers) [%] | S. T positive rate [1, 7] | other results
1 | AFLRHAAL [ART413, AFLRHAAL] |  | 95 | 39/41 | allergic skin reaction ([2]; ovarian cancer patients): elicited an allergic skin reaction
2 | CypB91-2F-Y: peptide obtained by replacing phenylalanine at the 2nd position of CypB91 with tyrosine (DYMIQGGDF; Designed peptide based on the peptide consisting of 9 amino acid residues from the 91st residue to the 99th residue of cyclophillin B) |  |  |  | inhibition of skin reaction and specific IgE level against CypB84, number of cases ([4]; among 10 cases tested, vaccination of CypB91 or CypB91-2F-Y): 9 cases
3 | DFMIQGGDF [CypB91, DFMIQGGDF] |  |  |  | skin reaction against CypB91 ([4]; after 3 times administration of CypB91): negative; S. T positive rate ([1]; human, in vivo): 0/42
4 | CypB84F-Y: peptide obtained by partially modifying CypB84: phenylalanine (F) at the 2nd position replaced with tyrosine (Y) (KYHRVIKDF; Peptide consisting of 9 amino acid residues from the 84th residue to the 92nd residue of cyclophillin B) |  |  |  | immediate hypersensitivity skin reactions elicited [6]: eight of ten

Continued, in another order:

Row | positive skin reaction, number of cases [1] [cases] | positive skin reaction, percent of healthy volunteers ([1]; healthy volunteers) [%] | S. T positive rate [1, 7] | Substance | other results
5 | 10 | 24 | 10/41 | SYTRLFLIL [SART2899, SYTRLFLIL] | 
6 | 7 | 17 | 7/42 | VYDYNCHVDL [SART3109, VYDYNCHVDL] | SART3109-specific IgE level in serum [3]: increased; skin reactions against SART3109 [3]: negative
7 |  |  | 1/41 | DYPSLSATDI [ART475, DYPSLSATDI] | ART475-specific IgE level in serum [5]: gradually increased; skin reaction against ART475 [5]: negative
8 |  |  | 0/42 | AYDFLYNYL [SART2161, AYDFLYNYL] | S. T (skin test, size of inflammatory flare) ([1]; individual healthy donors, 10 μg peptide intradermally, evaluated 15 minutes after injection): − (longest diameter (D) of flare <30 mm)
9 | 18 | 44 | 18/41 | AYIDFEMKI [SART3315, AYIDFEMKI] | 
10 | 40 | 95 | 40/42 | KFHRVIKDF [CypB84, KFHRVIKDF] | immediate hypersensitivity skin reactions elicited ([2]; pre-vaccinated lung-cancer patients): eight of ten

From US20040141992A1, “Desensitizers” (priority 2001, published 2004)
